Assay results taken from US8747815B2, “Use of a cosmetic of pharmaceutical composition, comprising a lupeol-rich extract as an active ingredient for stimulating the synthesis of heat shock proteins” (Laboratoires Expanscience, priority 2003, dated 2014).

Experiments:
HSP47 heat shock protein = assay: Western blotting, expression of the HSP47 protein in fibroblasts in culture; format: cell-based, human; conditions: dose of 20 μg/ml, incubation time of 48 h
Method: This technique consists of: • separation of the various proteins on a polyacrylamide gel under denaturing conditions; • transfer of the proteins onto a specific membrane (PVDF membrane, sold by the company Biorad); • labeling of the protein of interest with a specific antibody (HSP47, Stressgen); • “colorimetric” visualization (Sigma Fast, BCPIP/NBT). Various nontoxic concentrations (5, 10 and 20 μg/ml) and several incubation times (24 and 48 hours) were tested.

Normal fibroblasts (FS) [1] = assay: Isometric forces developed by fibroblasts in lattice, normal fibroblasts; format: cell-based; conditions: FS + lupeol 7 μg/ml, at 7 hours of culture; FS alone 3583 V±1076
Text: (§1) Normal fibroblasts (FS), fibroblasts from a red or recent stretch mark (FVr) and fibroblasts from an older white stretch mark (FVb) were used in this study. Mechanical inhibition of the retraction of the collagen gel in which fibroblasts are embedded is reflected by the generation of a force, called “retraction force” or “isometric force”. The lattices develop in a culture dish that consists of 8 rectangular cells. Placed into each one are 2 flexible silicon slides, the lower parts of which consist of grids to which the lattice attaches when it polymerizes. The lattice develops between 2 slides so as to give a rectangular shape that is slightly shrunken at the center. This shape in conventional mechanics is referred to as a “diabolo” shape. These slides have, in their upper part, a strain gauge system made of gold deposited at their surface. Under the influence of the retraction force developed by the fibroblasts, the silicon slides distort. This is reflected by a variation in the value of electrical resistance of the stress gauge, measured by means of a Wheatstone bridge. This variation indicates the force developed within the lattice, measured in real time via a PC acquisition card and suitable software. The mixture for producing the lattices was poured into the rectangular cells of the culture dish. A gel formed in a few minutes at 37° C. […] The isometric forces were measured for 48 hours.

[2] = tested on: FS, FVr and FVb fibroblasts; assay: Demonstration of αSM actin (immunolabeling) in fibroblasts cultured in lattice; format: cell-based; conditions: lupeol 7 μg/ml, lattices cultured for 5 days
Method: Normal fibroblasts (FS), fibroblasts from a red or recent stretch mark (FVr) and fibroblasts from an older white stretch mark (FVb) were used in this study. The fibroblasts were cultured in the absence or in the presence of lupeol at a concentration of 7 μg/ml. Fibroblasts are large (100 μm) cells with a fusiform or star-shaped morphology. Their cytoplasm contains an assembly of protein filaments (intermediate filaments, microtubules, actin filaments) which constitute the framework, or cytoskeleton, thereof in close relationship with the plasma membrane. 10% of all cell proteins consist of actin, polymerized in the form of filaments and bundles, which are often described as stress fibers. Actin filaments contribute to the contractile activity of the fibroblast by generating isometric forces. Several types of actin exist, including polymerized fibrillar actin (F actin) and a smooth muscle actin (αSM actin). Lattices pulled over a nylon ring were cultured for 5 days in Petri dishes (Ø 50 mm). They were fixed with 3% paraformaldehyde in PBS for 20 min, and then rinsed with PBS. They were subsequently incubated with PBS+0.1% Triton X100 so as to permeabilize the membrane with respect to antibodies, and then with 3% H2O2 in order to eliminate endogenous peroxidases. […] was blocked with 3% BSA+10% sheep serum in PBS. […]

human skin fibroblasts = assay: Cytotoxicity of test concentrations on fibroblasts in culture; format: cell-based
[3] = tested on: fibroblasts from an older white stretch mark (FVb); assay: Retraction of collagen lattice (free lattice), white stretch mark fibroblasts; format: cell-based
Method: (§2) Normal fibroblasts (FS), fibroblasts from a red or recent stretch mark (FVr) and fibroblasts from an older white stretch mark (FVb) were used in this study.
(§3) The fibroblasts were cultured in the absence or in the presence of lupeol at a concentration of 7 μg/ml.
(§4) The mechanism of retraction consists of the gathering up and rearranging of collagen by fibroblasts. The collagen polymerizes into fibrils to which the cells attach. The latter pull on the fibrils by virtue of their migratory movement, and thus reorganize the matrix. The diameter of the lattice is then decreased.
(§5) The mixture for producing lattices was poured into Petri dishes 50 mm in diameter. A gel formed in a few minutes at 37° C. The lattices were cultured with or without lupeol. The degree of retraction was determined by measuring the diameters of the lattices.

[4] = tested on: FS, FVr and FVb fibroblasts; assay: Demonstration of F actin (phalloidin-FITC) in fibroblasts cultured in lattice; format: cell-based; conditions: lupeol 7 μg/ml, lattices cultured for 5 days
Method: Normal fibroblasts (FS), fibroblasts from a red or recent stretch mark (FVr) and fibroblasts from an older white stretch mark (FVb) were used in this study. The fibroblasts were cultured in the absence or in the presence of lupeol at a concentration of 7 μg/ml. Fibroblasts are large (100 μm) cells with a fusiform or star-shaped morphology. Their cytoplasm contains an assembly of protein filaments (intermediate filaments, microtubules, actin filaments) which constitute the framework, or cytoskeleton, thereof in close relationship with the plasma membrane. 10% of all cell proteins consist of actin, polymerized in the form of filaments and bundles, which are often described as stress fibers. Actin filaments contribute to the contractile activity of the fibroblast by generating isometric forces. Several types of actin exist, including polymerized fibrillar actin (F actin) and a smooth muscle actin (αSM actin). Lattices pulled over a nylon ring were cultured for 5 days in Petri dishes (Ø 50 mm). They were fixed with 3% paraformaldehyde in PBS for 20 min, and then rinsed with PBS. They were subsequently incubated with PBS+0.1% Triton X100 in order to permeabilize the membrane. […] They were mounted between slide and cover slip with a drop of Vectashield, and were then observed under a fluorescence microscope, under UV.

gene encoding HSP47 = assay: cDNA microarray, expression of the gene encoding HSP47 in human skin fibroblasts; format: cell-based; conditions: 4.5 μg/ml lupeol
Method: We used the “cDNA microarray” method for studying the effects of the product on the expression of the genes encoding structural and regulatory proteins of potential interest in skin physiology. Such an approach makes it possible to screen, in a single step, the effects of a product or of a treatment on gene expression in a given biological system and to obtain a signature of the effects of this treatment.
The product was applied to human skin fibroblasts cultured in MEM/M199 for 18 hours. The lupeol, in solution in ethanol was tested at the concentration of […], this concentration corresponds to a noncytotoxic dose.
The methodology used is that recommended by Clontech (Palo Alto, USA), and comprises: • a step consisting in extracting and purifying the total RNA; • a step consisting in purifying the messenger RNAs according to the AtlasPure protocol (Clontech); • labeling of the DNA probes with P^32 by reverse transcription; • purifying the label probes by exclusion column chromatography and verification of the quality and of the equivalence by liquid scintillation counting; and • hybridizing membranes (provided by the company Custom Atlas BIOAlternative) with the radiolabeled probes (68° C., overnight). Analysis of Results
The membranes were analyzed by direct quantification of the radioactivity of the spots using a Cyclone PhosphorImager (provided by the company Packard Instrument).
The results are expressed in relative units (RU, mean radioactivity of the points of the double spot corresponding to each gene, corrected for the background noise and for the differences in probe labeling intensity).
The results were analyzed case by case, label by label. Arbitrarily, the limit of significance was fixed at approximately +30% of the control for a stimulating effect, i.e. for an effect greater than 130%.

[5] = tested on: fibroblasts from an older white stretch mark (FVb); assay: Isometric forces developed by fibroblasts in lattice, white stretch mark fibroblasts; format: cell-based; conditions: FVb + lupeol 7 μg/ml, at 7 hours of culture; FVb alone 3999 V±881
Text: as §1

Normal fibroblasts (FS) [6] = assay: Retraction of collagen lattice (free lattice), normal fibroblasts; format: cell-based
Method: as §2, §3, §4, §5

[7] = tested on: fibroblasts from a red or recent stretch mark (FVr); assay: Isometric forces developed by fibroblasts in lattice, red stretch mark fibroblasts; format: cell-based; conditions: FVr + lupeol 7 μg/ml, at 7 hours of culture; FVr alone 5547 V±808
Text: as §1

[8] = tested on: fibroblasts from a red or recent stretch mark (FVr); assay: Retraction of collagen lattice (free lattice), red stretch mark fibroblasts; format: cell-based
Method: as §2, §3, §4, §5

`C=C(C)[C@@H]1CC[C@]2(C)CC[C@]3(C)[C@H](CC[C@@H]4[C@@]5(C)CC[C@H](O)C(C)(C)[C@@H]5CC[C@]43C)[C@@H]12` [lupeol, Lupeol] was tested. Which “HSP47 production (Western blotting)” value (HSP47 heat shock protein) did it give?
The value was “stimulation of HSP47 production”.

And the isometric forces (Normal fibroblasts (FS) [1])?
The isometric forces was 1325 V.

What about the “labeling for αSM actin” value [2] of the same compound?
Its value is “weak labeling for αSM actin”.

And the “cytotoxicity of the tested concentration” value (human skin fibroblasts; 4.5 μg, in solution in ethanol, human skin fibroblasts)?
Its value is “noncytotoxic”.

What about the “toxicity of the tested concentrations” value (human skin fibroblasts; 5, 10 and 20 μg/ml, fibroblasts in culture) of the same compound?
Its value is “nontoxic”.

What about the Gel diameter ([3]; FVb + lupeol 7 μg/ml, FVb alone 2.9) of the same compound?
The Gel diameter was 3.2.

And the “% decrease in retraction” value ([3]; FVb, lupeol 7 μg/ml, at D2)?
Its value is 10%.

What about the “F actin stress fibers and fibroblast morphology” value [4] of the same compound?
The value was “lose their F actin stress fibers and evolve toward a star-shaped form”.

What about the “HSP47 gene expression, % of the control” value (gene encoding HSP47; 18 hours, human skin fibroblasts) of the same compound?
The value was 129 % of the control.

What about the “HSP47 gene expression, relative units (RU)” value (gene encoding HSP47; 18 hours, human skin fibroblasts, control cells 28.2 RU) of the same compound?
The value was 36.4 RU.

What about the “regulation of the expression of the gene encoding HSP47” value (gene encoding HSP47; incubation for 18 hours) of the same compound?
Its value is “positive regulation”.

What about the isometric forces [5] of the same compound?
The isometric forces was 1365 V.

And the Gel diameter (Normal fibroblasts (FS) [6]; FS + lupeol 7 μg/ml, FS alone 2.5)?
The Gel diameter was 3.

And the “% decrease in retraction” value (Normal fibroblasts (FS) [6]; FS, lupeol 7 μg/ml, at D2)?
Its value is 20%.

What about the isometric forces [7] of the same compound?
The isometric forces was 2488 V.

And the Gel diameter ([8]; FVr + lupeol 7 μg/ml, FVr alone 3)?
The Gel diameter was 3.6.

What about the “% decrease in retraction” value ([8]; FVr, lupeol 7 μg/ml, at D2) of the same compound?
Its value is 20%.
